Results from US9790188B2, “Benzimidazole derivatives and uses thereof” (Whitehead Institute for Biomedical Research, priority 2013, dated 2017).
Entries after “also recorded” stand apart in the source; their conditions may differ.

How the values were obtained:
htt72Q = assay: Yeast growth rescue, htt72Q proteinopathy model; assay type: cell-based
Description: (A) Structure of lead compound ABI. (B) Dose-response curves showing the relative rescue of ABI (log2, μM) in five yeast proteinopathy models. Rescue is relative to a positive control compound as determined by growth (OD600). (C) Localization of α-syn-GFP in strains with increasing toxicity: NoTox, InTox, HiTox and HiTox treated with 10 μM ABI. […] (E) (Left panel) Western blot of α-syn-GFP in NoTox, InTox, and HiTox strains with anti-α-syn antibody. (Right panel) Quantitation of western blot (α-syn relative to total protein quantitated from a Coomassie gel and normalized to 100% for HiTo). **: P<0.01; and ***: P<0.001, according to one-way ANOVA and a Tukey's test.
Yeast strains expressing toxic proteins have been described previously (6, 9, 33, 34) (Table 1). All strains have either single or multiple inserts for galactose-inducible expression. In addition, all stains have either deletions of the Δpdr1::KanMX and Δpdr3::KanMX or Δpdr5::KanMX to reduce efflux of compounds and required compound dosing. Yeast were cultured in complete synthetic media (CSM) and an appropriate dropout (minus HIS or URA) to maintain plasmids if required. […]
Starting cultures for all dose-response assays were established as described above. […] Plates were then read with a Tecan Saphire plate reader at OD600.

α-syn foci = assay: α-syn-GFP localization / foci microscopy in yeast; assay type: cell-based; conditions: α-syn-expressing yeast
Description: Logarithmic growing raffinose cultures were induced with galactose for five hours in the presence or absence of the indication concentration of ABI. Cells were centrifuged, media discarded, and then fixed with 4% paraformaldehyde in 1×PBS for 1 hr. The fixed culture was centrifuged, and the pellet resuspended in 0.4% paraformaldehyde in 1×PBS and kept at 4° C. Single plain images were taken at 100× magnification with a Nikon Eclipse Ti microscope.

α-syn = assay: Western blot of α-syn levels in yeast; assay type: cell-based; conditions: α-syn-expressing yeast
Description: Protein analysis of α-syn-GFP was performed in NoTox, InTox, and HiTox strains with ABI1 treatment at indicated concentrations. Log phase CSM/2% raffinose cultures were induced with 2% galactose for 5 hours with DMSO or ABI1. Cultures were normalized to cell density and cell pellets prepared for SDS-PAGE. Cell pellets were boiled in SDS-loading dye for 15′, centrifuged, and resolved by 4-12% SDS-PAGE. […] From the same gel, total protein was detected by coomassie staining. Both blots and coomassie-stained gels were scanned using the Li-Cor Odyssey imaging system and quantitated. Values were expressed as α-syn normalized to total protein (FIG. 1E). Significance was determined using a one-way ANOVA with Tukey's test of significance.

[1] = tested on: TH-positive (dopaminergic) neurons; assay: Primary ventral mesencephalic cultures transduced with A53T α-syn; assay type: cell-based, rat; conditions: A53T α-syn adenovirus, 0.1 μM
Description: Experiments aimed at monitoring dopaminergic cell viability in primary mesencephalic cultures were performed as described previously (7-9). Briefly, cells obtained from the midbrains of E17 rat embryos were plated at a density of 2.18×10^3 cells per mm^2 on a 48-well plate. Four days after plating, the cells were treated with cytosine arabinofuranoside (20 μM) to restrict the growth of glial cells. Three days later (7 days in vitro), the cells were transduced with an adenovirus encoding A53T α-syn, generated using the Invitrogen ViraPower Adenoviral Expression System (38), at a multiplicity of infection (MOI) of 15 in the absence or presence of ABI1 (0.1 μM). After a 72-h transduction period, the media was replaced with fresh media with or without ABI1 for an additional 24 h. […] MAP2- and TH-immunoreactive neurons were counted by an investigator blinded to the identity of the treatment conditions in at least ten randomly chosen observation fields (encompassing ˜800-1600 MAP2^+ neurons) per treatment using a Nikon TE2000-U inverted fluorescence microscope with a 20× objective. Relative dopaminergic cell viability was calculated as the percentage of MAP2-positive neurons that were also TH-positive and normalized by the value determined for control cells (set to 100%). […]

aSyn^A53T iPS neurons = assay: ER protein trafficking (nicastrin, GCase, Endo H) in patient iPS neurons; conditions: human cortical neurons from iPSCs of a patient carrying α-syn mutations
Description: Trafficking from ER was assessed by probing for nicastrin and GCase with or without Endo H treatment. Data are normalized using corrected/A53T ratios established in FIG. 6 to more faithfully depict the biological significance of the small molecule effects (n=3). […] All data represented as mean±SEM (*: p<0.05; **: p<0.01, two tail t-test compared to control condition).
Trafficking from ER was assessed by probing for nicastrin and GCase with or without Endo H treatment.

## Cc1cccc(-n2cnc3cc(C(=O)NCc4ccccc4Cl)ccc32)c1 [ABI, N-(2-chlorobenzyl)-1-(m-tolyl)-1H-benzo[d]imidazole-5-carboxamide]
htt72Q
  efficacy against htt72Q: not, however, effective
α-syn foci
  accumulation of cytoplasmic α-syn foci / inclusions: prevented the accumulation of cytoplasmic α-syn foci
α-syn
  α-syn levels: did not reverse α-syn phenotypes by reducing α-syn levels; also recorded: did not detect changes
[1]
  retraction of neuronal processes / neurite length: markedly reduced the retraction of neuronal processes; also recorded: reversed
  survival of TH-positive neurons (% of MAP2-positive neurons): largely restored the survival; also recorded: reversed
aSyn^A53T iPS neurons
  ER-to-Golgi protein trafficking defect: ameliorated an ER-to-Golgi protein trafficking defect
